Data: patent US10204206B2, “Modelling of the action of an optical fiber in photodynamic therapy treatment, and assistance in the planning of said treatment” (STEBA MAOR SA, priority 2010, dated 2019)

Test system: prostate
Assay: Clinical trials of photodynamic therapy of prostate cancer: action radius of the optical fiber fitted to the actual necrotic volume
Format: in vivo, patients
Details: 28 clinical trials; 4 mg/kg; optical fiber at 763 nm; insertion lengths 15 to 40 mm; accuracy 1.08 mm
Text: In this study, the Applicant has validated its modeling method for the use of an optical fiber with specific wavelength of 763 nm, in association with the WST11 photosensitive agent, for the treatment of prostate cancer. It is easily understood that the principles of modeling, as well as those of assistance in planning resulting from this modeling, can be used for other combinations of optical fibers and photosensitive agents, and applied to the treatment of other organs.
In reference to FIG. 2, the modeling method 100 thus includes a preliminary step 110 of constructing a database of results from clinical trials conducted previously on a plurality of patients using the same photosensitive material at the same dosage, such as 4 mg/kg of WST11, associated with at least one optical fiber that we seek to model. This construction consists of storing one record per patient in the database with at least the following elements: […]
Once steps 120 and 130 have been carried out, the only thing left to do is to determine, in a step 140 referenced in FIG. 2, the action radius R of an optical fiber by correlation, for each patient in the database, with the total theoretical action volume calculated with the measured volume of the actual necrotic area. […]

CC[C@H]1c2cc3[n-]c(c(CC(=O)OC)c4nc(cc5[n-]c(cc(n2)[C@@H]1C)c(C(C)=O)c5C)[C@@H](C)[C@@H]4CCC(=O)[O-])c(C(=O)NCCS(=O)(=O)[O-])c3C.[H+].[H+].[Pd+2] [WST11]
average action radius R of an optical fiber (value for which theoretical volume was closest to the volume of the actual necrotic area): 7.49 mm
